{"source": "patent US9745357B2", "about": "“Peptides used for treating cancers and, in particular, chronic lymphoid leukaemia” (Centre National de la Recherche Scientifique, priority 2009, dated 2017)", "key": {"[1]": {"system": "B lymphocytes from patients suffering from chronic lymphoid leukemia (CLL)", "details": "for IC50: read-out: IC50 (concentration of peptide causing the death of 50% of the cells), after 24 H", "experimental": "Peripheral blood B lymphocytes taken from patients suffering from CLL and then purified on a Ficoll cushion and placed in culture are incubated in the presence of […] of the peptides described for FIG. 2. The percentage cell survival after 4 hours (gray column) or 24 hours (white column) of culture corresponds to the percentage of cells labeled neither with annexin nor with propidium iodide, evaluated by flow cytometry.\nThe CLL B lymphocytes were obtained from peripheral blood of 18 different patients suffering from chronic lymphoid leukemia. […] The samples were taken in the Brest hospital center, in the hematology department. The blood samples were taken after informing the patients and obtaining their informed consent.\nThe lymphocytes, mononuclear cells, were isolated from the heparinized peripheral blood samples by Ficoll-Hypaque (LSM 1077 lymphocyte, euro-bio) centrifugation. The red blood cells were lyzed by incubation for 10 min in VersaLyse Lysing Solution (Beckman Coulter). The mononuclear cells are obtained after 2 washes in culture medium (RPMI1640, Gibco BRL).\n(§1) The cells were cultured in a culture medium composed either of RPMI 1640 (B lymphocytes) or of DMEM (COS7, HCT116, HGT1, 293, HeLa) containing 10% of FCS (fetal calf serum, 1% of penicillin-streptomycin and 1% of glutamine, Gibco BRL). The cells are distributed in a 24-well plate and cultured at 37° C. in a humid atmosphere under 5% CO2.\n(§2) 400 μl of cell suspension (1×10^6 cells/ml) per well were treated for 4 h or 24 h with various concentrations of peptides. The test for activity of the peptides in the presence of emetine (FIG. 6) was carried out by preincubating the cells with 100 μM of emetine for one hour before the addition of peptide.\n(§3) After the cells have been washed with PBS, they were analyzed using the Annexin V-FITC IP system according to the supplier's recommendations (Beckman Coulter).\nThe cells taken from patients suffering from chronic lymphoid leukemia were purified on a Ficoll cushion. […] The cells were placed in culture in RPMI medium in the presence of 10% FCS (fetal calf serum). The peptides were added directly to the culture medium. These peptides comprise the IRS sequence (the amino acid sequence of which is RYIRS) which is known to allow the penetration of peptides into B lymphocytes in culture (Dong et al., 2005). […] The cells which survive the treatment are those which are labeled neither with annexin nor with propidium iodide."}, "[2]": {"system": "control T lymphocytes (patients suffering from hemochromatosis)", "assay": "Cell survival of control T lymphocytes, annexin/propidium iodide flow cytometry", "format": "cell-based, human", "experimental": "(§4) FIG. 7: Activity of the A1WT peptide on cells of lymphocytic, lymphoid, gastric, colonic or renal origin The cells are prepared and placed in culture (see Materials and Methods) and then incubated for 4 H with the A1WT or A1 YALA peptide. The percentage cell survival corresponds to the percentage of cells labeled neither with annexin nor with propidium iodide, evaluated by flow cytometry. The names of the pathological conditions from which the patients from whom the samples are taken are suffering are indicated under the figure. The control T (L.T.) and B (L.B.) lymphocytes are taken from patients suffering from a disease not related to a lymphocytic pathological condition (hemochromatosis).\nThe control B lymphocytes and T lymphocytes originate from peripheral blood samples from patients suffering from hemochromatosis, provided by the CTS transfusion center in Brest. The B and T lymphocytes were isolated using the Rosett-Sep kit (Stemcell Technologies) according to the supplier's recommendations.\nas §1, §2, §3"}, "[3]": {"system": "acute myeloid leukemia (AML) cells", "format": "cell-based, human", "details": "4 h, 40 μM", "experimental": "as §4, §1\n400 μl of cell suspension (1×10^6 cells/ml) per well were treated for 4 h or 24 h with various concentrations of peptides. […]\nAfter the cells have been washed with PBS, they were analyzed using the Annexin V-FITC IP system according to the supplier's recommendations (Beckman Coulter). […]"}, "[4]": {"system": "HeLa cells (cervical cancer)", "assay": "Cell survival of HeLa cells, Syto 13/propidium iodide fluorescence microscopy", "format": "cell-based", "details": "one hour incubation, various concentrations; FIG. 10", "experimental": "(§5) The cells cultured in glass-bottomed multiwell plates are incubated for one hour with the A1WT or A1 YALA peptide at the concentrations indicated on the figure. The percentage cell survival is obtained by calculating the ratio between the cells stained with Syto 13 and those stained with propidium iodide (see Materials and Methods).\n(§6) The analyses were carried out on a Zeiss Observer Z1 epifluorescence microscope. The cells are cultured in a glass-bottomed multiwell plate, propidium iodide and Syto13 (Invitrogen) are added to the medium at a concentration of 1 mg/ml and 5 μM, respectively. The Syto 13 binds to the DNA in the nuclei of the cells which then emit a green fluorescence. When the membrane permeability is modified during the cell death process, the propidium iodide penetrates the cell and causes the appearance of a red fluorescence when it binds to the DNA of the cell nuclei. The ratio between the number of nuclei emitting a green fluorescence and the number of nuclei emitting a red fluorescence represents the fraction of live cells expressed as percentage cell survival in the figures."}, "[5]": {"system": "293 cells (human embryo kidney cells transformed with adenovirus 5)", "assay": "Cell survival of 293 cells, Syto 13/propidium iodide fluorescence microscopy", "format": "cell-based", "details": "one hour incubation, various concentrations; FIG. 10", "experimental": "as §5, §6"}, "[6]": {"details": "40 μM peptide, 4 hours of culture, cells not labeled with annexin or propidium iodide"}}, "note": "Like-named read-outs stand apart in the source and are kept apart here. No end group written: not given here.", "data": [{"sequence": "RRKYGRDFLLRFRYIRS [A1 WT IRS, RRKYGRDFLLRFRYIRS]", "values": [{"measurement": "cell survival, peptide in the presence of emetine", "setting": "[1]; 40 μM peptide after 1 h preincubation with 100 μM emetine, 4 H (from 97%), FIG. 6", "result": 27, "unit": "%"}, {"measurement": "cell effect CLL 40 (survival)", "setting": "[1]; [6]", "result": "+ (+: survival <25%)"}, {"measurement": "change of the effect on survival over time", "setting": "[1]; 40 μM, 1 H, 2 H, 4 H and 24 H, FIG. 4", "result": "no longer active after 4 H of incubation"}, {"measurement": "effect of the peptide on cell mortality, in words (relative to A1 WT IRS)", "setting": "[1]; 40 μM, 4 hours, FIG. 9", "result": "high cell mortality"}, {"measurement": "cell survival rate compared with cells incubated without peptide", "setting": "[1]; 4 H of incubation with 20 μM of peptide, FIG. 8", "result": "less than 65%"}, {"measurement": "IC50", "setting": "[1]; batch of cells from a second patient", "result": 24, "unit": "µM"}, {"measurement": "IC50", "setting": "[1]; first patient, FIG. 5", "result": "~28", "unit": "µM"}, {"measurement": "cell effect LT 40 (survival)", "setting": "[2]; [6]", "result": "+ (+: survival <25%)"}, {"measurement": "survival rate", "setting": "[2]; after 4 H of incubation with 40 μM, FIG. 7", "result": 38, "unit": "%"}, {"measurement": "survival rate", "setting": "[3]", "result": 38, "unit": "%"}, {"measurement": "effect on cell survival", "setting": "[4]", "result": "high sensitivity"}, {"measurement": "effect on cell survival", "setting": "[5]", "result": "dose-dependent effect"}]}]}
